Experimental data reported in ChEMBL document CHEMBL1150806, “A new macrocyclic trichothecene, 12,13-deoxyroridin E, produced by the marine-derived fungus Myrothecium roridum collected in Palau” (J Nat Prod, 2001).
Converted amounts (≈) assume the structure as drawn.

What was measured:
[1] = system: HL-60; assay: Cytotoxicity against human HL60 cells after 72 hrs by WST8 assay; type: functional, cell-based
[2] = system: L1210; assay: Cytotoxicity against mouse L1210 cells after 72 hrs by WST8 assay; type: functional, cell-based

C=C1[C@H]2C[C@H]3OC(=O)/C=C\C=C\[C@H]([C@@H](C)O)OCC/C(C)=C/C(=O)OC[C@@]4(CCC(C)=C[C@H]4O2)[C@]13C
IC50 ([1]; Homo sapiens, HL-60, 72 h, read-out: IC50): 25 ng/mL (≈ 50.1 nM) | IC50 ([2]; Mus musculus, L1210, 72 h, read-out: IC50): 1.5 ng/mL (≈ 3.01 nM)

CC1=C[C@H]2O[C@@H]3C[C@H]4OC(=O)/C=C\C=C\[C@H]([C@@H](C)O)OCC/C(C)=C/C(=O)OC[C@@]2(CC1)[C@]4(C)[C@]31CO1 [RORIDIN E]
IC50 ([1]; hl-60): 0.3 ng/mL (≈ 0.583 nM) | IC50 ([2]; l1210): 0.2 ng/mL (≈ 0.389 nM)

CC1=C[C@H]2O[C@@H]3C[C@H]4OC(=O)/C=C\C=C\C(=O)OCC[C@@H](C)[C@H](O)C(=O)OC[C@@]2(CC1)[C@]4(C)[C@]31CO1 [VERRUCARIN A]
IC50 ([1]; hl-60): 0.2 ng/mL (≈ 0.398 nM) | IC50 ([2]; l1210): 0.35 ng/mL (≈ 0.696 nM)

CC1=C[C@H]2O[C@@H]3C[C@H]4OC(=O)/C=C\C=C\C(=O)OCC/C(C)=C/C(=O)OC[C@@]2(CC1)[C@]4(C)[C@]31CO1 [VERRUCARIN J]
IC50 ([1]; hl-60): 2.5 ng/mL (≈ 5.16 nM) | IC50 ([2]; l1210): 2.5 ng/mL (≈ 5.16 nM)
